Assays:
Type in all cases: in vivo, rat
[1] = Body weight monitoring of rats with endometriosis; details: vs vehicle
Source text: Female Sprague Dawley rats of 60 days old were used in the experiments (weighing between 190-220 grams). Rats were purchased from Ponce Research Institute Animal Facilities and littermates were never assigned to the same experimental group. Rats were housed two per cage and kept in a 12-hour light/dark cycle with food and water ad libitum. All experimental procedures were approved by the Ponce Health Sciences University (protocol #202) and the University of Texas at Rio Grande Valley (protocol #2016-004) Institutional Animal Care and Use Committees and adhere to the NIH Guide for the Care and Use of Laboratory Animals. Rats were weighed twice per week to monitor their adequate development and once a day during the drug administration period; also, estrous cycles were monitored before and after treatment to assess possible effects of the drug on reproductive cyclicity.
Inconsistencies in the effect of antalarmin on […] rodent body weight can happen. The Group 2 rat weight changes were monitored during the drug administration period and every week afterwards during the development of endometriosis.

[2] = tested on: anxiety behaviors; assay: Anxiety behaviors: open field and elevated zero maze; details: day 60; compared to sham group
Description: One day before behavioral assessment and sacrifice a subset of rats (6 vehicle and 6 antalarmin) were subjected to an acute episode of swim stress of 10 min and compared to no stress controls to assess how rats respond to acute activation of the HPA axis. For this, animals were placed in a Plexiglas tank for 10 min in water at 25° C. Rats were towel dried and kept in warm cage after swim until fur dried. The next day, two behavioral tasks were used to assess anxiety behaviors. The open field test is used to quantify exploratory and locomotor activity of a rodent in an open arena. The apparatus used was a square wood arena (91×91×38 cm) with overhead light illumination and video monitoring to record animal activity using Any-Maze software (Stoelting, Wood Dale, Ill.). The following behaviors were quantified during 20 minutes: 1) total distance moved, 2) time spent moving, 3) time spent in the center of the arena, 4) time spent near the walls of the arena (defined by the 15 cm of floor arena closest to the walls) and 5) total fecal pellets. The more time the animal spends in the center of the arena compared to the space adjacent to the wall is considered as having less anxiety. At the end of the testing period, animals were returned to the home cage and after a 5-min break were tested in the elevated zero-maze.
The elevated zero-maze is very similar to the more traditional elevated plus maze test, with the advantage of not having a neutral (undefined) zone in the middle. The apparatus consisted of a circle with an arm width of 10 cm and elevated 40 cm from floor. […] Rats were allowed to run the maze for 5 consecutive minutes and recorded using the Any-Maze software (Stoelting, Wood Dale, Ill.). The following parameters were analyzed by the Any-Maze program: 1) total distance travelled in the maze, 2) time spent in the open/closed arms and 2) number of entries made by the rodent onto the open/closed arms. When 60% of the animal body entered the arm, the program counted is as an entry. In addition, total fecal pellets in the maze were quantified. […]

[3] = tested on: corticosterone, adrenocorticotropic hormone (ACTH), IL-6; assay: ELISA of serum corticosterone and ACTH and of peritoneal fluid IL-6; details: at sacrifice
Source text: It was verified that the animals were deeply anesthetized. Rats were weighed, and a cytological smear taken to verify stage of the estrous cycle. The peritoneal and thoracic cavities were opened, and a blood sample was collected directly from the heart. Following this, peritoneal fluid was collected using a sterile plastic pipette. Examination was directed to the presence of endometriosis vesicles. The implants that developed into vesicles were excised from the mesentery, weighed and measured using a digital caliper. Classification of vesicles was carried out and assigned the following grades: grade 1=disappeared; grade 2=0.01-1.99 mm; grade 3=2-4.49 mm; grade 4=4.5-5.99 mm; grade 5=6.0 mm or larger. In sham animals, empty suture sites were counted and collected. In addition to the endometriosis vesicles, the adrenal glands were collected, all surrounding fatty tissue was removed, and the cleared adrenal glands were weighed. Additionally, tissues from colon and the left uterine horn were collected. All tissues were flash frozen and stored at −80° until further processing.
Serum and peritoneal fluid samples from animals were tested for levels of corticosterone, adrenocorticotropic hormone (ACTH) and the pro-inflammatory cytokine IL-6 following instructions in the commercial kits. The following kits were used: Corticosterone rat/mouse kit (Cat. #79175; IBL America, Minneapolis, Minn.); Rat IL-6 pre-coated ELISA kit (Cat. #437107; BioLegend, San Diego, Calif.); Mouse/rat ACTH ELISA kit (Cat. # AC018T-100, Calbiotech, El Cajon, Calif.).

CCCCN(CC)c1nc(C)nc2c1c(C)c(C)n2-c1c(C)cc(C)cc1C [antalarmin]
weight gain in subsequent weeks ([1]; by week 7 and 8 after endometriosis induction): significantly lower weight gain
body weight during and just after drug administration ([1]; day 7 and 2 days after treatment stopped): weighed significantly less
open field: total distance traveled [2]: significantly lower
zero maze: locomotor activity [2]: higher locomotor activity
zero maze: time in the open arms [2]: strong trend for both groups of rats with endometriosis to spend less time in the open arms
IL-6 in peritoneal fluid ([3]; 53 days after treatment): did not produce any change
serum corticosterone ([3]; day 60): slightly elevated
serum adrenocorticotropic hormone (ACTH) ([3]; day 60, compared to vehicle group): significantly elevated levels

Source: US10729693B2, “Compositions and methods for the treatment of endometriosis” (PONCE MEDICAL SCHOOL FOUNDATION, INC., priority 2018, dated 2020)
